Assay results published in patent US20250353891A1 (MEDIMMUNE LIMITED, priority 2022, published 2025).
Starred links: 1 amine or outer side, 2 acyl side, 3 side chain; linkers in the order of their positions; H or OH if unused. Non-standard residues stand in square brackets, D forms with d. Residues, ends and D or L forms follow the SMILES beside them. Groups on a side chain read outwards from the residue. *: point of attachment. C20 diacid = O=C(O)CCCCCCCCCCCCCCCCCCC(=O)*; C18 diacid = O=C(O)CCCCCCCCCCCCCCCCC(=O)*; γGlu = O=C(O)[C@H](CCC(=O)[*:2])N[*:1]; αMeF = C[C@](N)(Cc1ccccc1)C(=O)O; AEEA = NCCOCCOCC(=O)O; Aib = CC(C)(N)C(=O)O

Columns and labels:
[1] = molecular target: human GLP-1 receptor (hGLP-1R) (Homo sapiens, UniProt P43220); assay: cAMP production (HTRF) in CHO cells expressing hGLP-1R; format: cell-based; parameters: expressed in transfected cells; details: for EC50: Table 6, peptides modified at position 17, cAMP in CHO hGLP-1R cells, geometric mean, read-out: hGLP-1R EC50; for % Relative Potency Ratio: Table 6, % GLP-1R activity relative to GLP-1 / % GlucR activity relative to glucagon
Outline: (§1)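 Cells were resuspended in assay buffer at batch-optimized density, typically 1×10^5 cells/mL for hGLP-1R and 2×10^5 cells/mL for hGCGR. After 30 min incubation at room temperature with compound, cAMP was measured by two-step HTRF. EC50 values came from 4-parameter logistic fits of % Delta F.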

[2] = molecular target: human glucagon receptor (hGCGR) (Homo sapiens, UniProt P47871); assay: cAMP production (HTRF) in CHO cells expressing hGCGR; format: cell-based; parameters: expressed in transfected cells; details: Table 6, peptides modified at position 17; cAMP in CHO hGCGR cells; geometric mean; read-out: hGluc-R EC50
Outline: as §1

Sequence of human GLP-1 receptor (hGLP-1R) (P43220 24-463): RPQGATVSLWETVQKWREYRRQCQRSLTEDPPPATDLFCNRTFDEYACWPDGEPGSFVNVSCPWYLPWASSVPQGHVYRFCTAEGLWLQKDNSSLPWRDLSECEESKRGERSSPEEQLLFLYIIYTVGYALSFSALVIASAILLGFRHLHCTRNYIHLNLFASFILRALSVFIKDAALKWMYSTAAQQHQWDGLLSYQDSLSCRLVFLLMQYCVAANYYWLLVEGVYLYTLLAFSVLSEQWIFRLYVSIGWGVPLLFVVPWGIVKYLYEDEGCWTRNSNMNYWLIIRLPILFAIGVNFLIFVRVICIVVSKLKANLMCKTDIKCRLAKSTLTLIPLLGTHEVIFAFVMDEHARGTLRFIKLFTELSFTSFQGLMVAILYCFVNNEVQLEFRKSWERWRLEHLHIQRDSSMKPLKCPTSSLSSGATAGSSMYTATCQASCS
Sequence of human glucagon receptor (hGCGR) (P47871 26-477): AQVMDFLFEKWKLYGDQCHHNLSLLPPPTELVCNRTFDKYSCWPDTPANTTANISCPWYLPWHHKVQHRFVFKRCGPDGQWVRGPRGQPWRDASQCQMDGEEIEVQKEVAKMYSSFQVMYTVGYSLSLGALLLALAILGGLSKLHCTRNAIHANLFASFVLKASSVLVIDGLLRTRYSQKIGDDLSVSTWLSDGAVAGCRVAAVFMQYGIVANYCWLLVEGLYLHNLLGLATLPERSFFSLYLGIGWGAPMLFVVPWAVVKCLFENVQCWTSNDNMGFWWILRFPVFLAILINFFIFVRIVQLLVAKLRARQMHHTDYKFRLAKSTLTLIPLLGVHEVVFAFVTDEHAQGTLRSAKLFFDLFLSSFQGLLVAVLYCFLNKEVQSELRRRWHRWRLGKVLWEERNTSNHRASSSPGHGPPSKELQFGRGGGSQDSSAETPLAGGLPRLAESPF

Row | Compound | EC50 [1] [nM] | % Relative Potency Ratio [1] | EC50 [2] [nM]
1 | CC(C)C[C@H](NC(=O)[C@H](Cc1c[nH]c2ccccc12)NC(=O)[C@H](CCCNC(=N)N)NC(=O)[C@@H](NC(=O)[C@H](Cc1ccccc1)NC(=O)[C@H](CC(=O)O)NC(=O)[C@H](CCC(N)=O)NC(=O)[C@H](C)NC(=O)[C@H](CCCNC(=N)N)NC(=O)[C@H](CCCCNC(=O)COCCOCCNC(=O)COCCOCCNC(=O)CC[C@H](NC(=O)CCCCCCCCCCCCCCCCCCC(=O)O)C(=O)O)NC(=O)[C@@H](NC(=O)[C@H](CC(=O)O)NC(=O)[C@H](CC(C)C)NC(=O)[C@](C)(Cc1ccccc1)NC(=O)[C@H](CCCCN)NC(=O)[C@H](CO)NC(=O)[C@@H](NC(=O)[C@H](CC(=O)O)NC(=O)[C@H](CO)NC(=O)[C@@H](NC(=O)[C@H](Cc1ccccc1)NC(=O)[C@@H](NC(=O)CNC(=O)[C@H](CCC(N)=O)NC(=O)C(C)(C)NC(=O)[C@@H](N)Cc1c[nH]cn1)[C@@H](C)O)[C@@H](C)O)C(C)C)[C@@H](C)O)C(C)C)C(=O)N[C@@H](CC(C)C)C(=O)N[C@@H](CCCNC(=N)N)C(=O)NC(C)(C)C(=O)N[C@@H](C)C(=O)O [Peptide 498] (H-H[Aib]QGTFTSDVSK[αMeF]LDTK([AEEA-AEEA-γGlu-C20 diacid])RAQDFVRWLLR[Aib]A-OH; N-terminus assumed) | 0.156 | 2.1 | 0.17
2 | CC(C)C[C@H](NC(=O)[C@H](Cc1c[nH]c2ccccc12)NC(=O)[C@H](CCC(N)=O)NC(=O)[C@@H](NC(=O)[C@H](Cc1ccccc1)NC(=O)[C@H](CC(=O)O)NC(=O)[C@H](CCCNC(=N)N)NC(=O)[C@H](C)NC(=O)[C@H](CCCNC(=N)N)NC(=O)[C@H](CCCCNC(=O)COCCOCCNC(=O)COCCOCCNC(=O)CC[C@H](NC(=O)CCCCCCCCCCCCCCCCCCC(=O)O)C(=O)O)NC(=O)[C@@H](NC(=O)[C@H](CC(=O)O)NC(=O)[C@H](CC(C)C)NC(=O)[C@](C)(Cc1ccccc1)NC(=O)[C@H](CCCCN)NC(=O)[C@H](CO)NC(=O)[C@@H](NC(=O)[C@H](CC(=O)O)NC(=O)[C@H](CO)NC(=O)[C@@H](NC(=O)[C@H](Cc1ccccc1)NC(=O)[C@@H](NC(=O)CNC(=O)[C@H](CCC(N)=O)NC(=O)C(C)(C)NC(=O)[C@@H](N)Cc1c[nH]cn1)[C@@H](C)O)[C@@H](C)O)C(C)C)[C@@H](C)O)C(C)C)C(=O)N[C@@H](CC(C)C)C(=O)N[C@@H](CCCNC(=N)N)C(=O)NC(C)(C)C(=O)N[C@@H](C)C(=O)O [Peptide 502] (H-H[Aib]QGTFTSDVSK[αMeF]LDTK([AEEA-AEEA-γGlu-C20 diacid])RARDFVQWLLR[Aib]A-OH; N-terminus assumed) | 0.0821 | 4.2 | 0.175
3 | CC(C)C[C@H](NC(=O)[C@H](Cc1c[nH]c2ccccc12)NC(=O)[C@H](CCCNC(=N)N)NC(=O)[C@@H](NC(=O)[C@H](Cc1ccccc1)NC(=O)[C@H](CC(=O)O)NC(=O)[C@H](CCC(N)=O)NC(=O)[C@H](C)NC(=O)[C@H](CCCNC(=N)N)NC(=O)[C@H](CCCCNC(=O)COCCOCCNC(=O)COCCOCCNC(=O)CC[C@H](NC(=O)CCCCCCCCCCCCCCCCCCC(=O)O)C(=O)O)NC(=O)[C@@H](NC(=O)[C@H](CC(=O)O)NC(=O)[C@H](CC(C)C)NC(=O)[C@](C)(Cc1ccccc1)NC(=O)[C@H](CCCCN)NC(=O)[C@H](CO)NC(=O)[C@@H](NC(=O)[C@H](CC(=O)O)NC(=O)[C@H](CO)NC(=O)[C@@H](NC(=O)[C@H](Cc1ccccc1)NC(=O)[C@@H](NC(=O)CNC(=O)[C@H](CCC(N)=O)NC(=O)C(C)(C)NC(=O)[C@@H](N)Cc1c[nH]cn1)[C@@H](C)O)[C@@H](C)O)C(C)C)[C@@H](C)O)C(C)C)C(=O)N[C@@H](CC(C)C)C(=O)N[C@@H](CCC(=O)O)C(=O)NC(C)(C)C(=O)N[C@@H](CCCCN)C(=O)O [Peptide 503] | 0.0812 | 2.1 | 0.0849
4 | CC(C)C[C@H](NC(=O)[C@H](Cc1c[nH]c2ccccc12)NC(=O)[C@H](CCCNC(=N)N)NC(=O)[C@@H](NC(=O)[C@H](Cc1ccccc1)NC(=O)[C@H](CC(=O)O)NC(=O)[C@H](CCC(N)=O)NC(=O)[C@H](C)NC(=O)[C@H](CCCNC(=N)N)NC(=O)[C@H](CCCCNC(=O)COCCOCCNC(=O)COCCOCCNC(=O)CC[C@H](NC(=O)CCCCCCCCCCCCCCCCCCC(=O)O)C(=O)O)NC(=O)[C@H](CO)NC(=O)[C@H](CCC(=O)O)NC(=O)[C@H](CC(C)C)NC(=O)[C@](C)(Cc1ccccc1)NC(=O)[C@H](CCCCN)NC(=O)[C@H](CO)NC(=O)[C@@H](NC(=O)[C@H](CC(=O)O)NC(=O)[C@H](CO)NC(=O)[C@@H](NC(=O)[C@H](Cc1ccccc1)NC(=O)[C@@H](NC(=O)CNC(=O)[C@H](CCC(N)=O)NC(=O)C(C)(C)NC(=O)[C@@H](N)Cc1c[nH]cn1)[C@@H](C)O)[C@@H](C)O)C(C)C)C(C)C)C(=O)N[C@@H](CC(C)C)C(=O)N[C@@H](CCC(=O)O)C(=O)NC(C)(C)C(=O)N[C@@H](CCCCN)C(=O)O [Peptide 504] | 0.124 | 8.8 | 0.551

Further lines, results first:

Row | EC50 [1] [nM] | % Relative Potency Ratio [1] | EC50 [2] [nM] | Compound
5 | 0.0406 | 3.8 | 0.0788 | CC(C)C[C@H](NC(=O)[C@H](Cc1c[nH]c2ccccc12)NC(=O)[C@H](CCC(N)=O)NC(=O)[C@@H](NC(=O)[C@H](Cc1ccccc1)NC(=O)[C@H](CC(=O)O)NC(=O)[C@H](CCC(N)=O)NC(=O)[C@H](C)NC(=O)[C@H](CCCNC(=N)N)NC(=O)[C@H](CCCCNC(=O)COCCOCCNC(=O)COCCOCCNC(=O)CC[C@H](NC(=O)CCCCCCCCCCCCCCCCC(=O)O)C(=O)O)NC(=O)[C@@H](NC(=O)[C@H](CC(=O)O)NC(=O)[C@H](CC(C)C)NC(=O)[C@](C)(Cc1ccccc1)NC(=O)[C@H](CCCCN)NC(=O)[C@H](CO)NC(=O)[C@@H](NC(=O)[C@H](CC(=O)O)NC(=O)[C@H](CO)NC(=O)[C@@H](NC(=O)[C@H](Cc1ccccc1)NC(=O)[C@@H](NC(=O)CNC(=O)[C@H](CCC(N)=O)NC(=O)C(C)(C)NC(=O)[C@@H](N)Cc1c[nH]cn1)[C@@H](C)O)[C@@H](C)O)C(C)C)[C@@H](C)O)C(C)C)C(=O)N[C@@H](CC(C)C)C(=O)N[C@@H](CCCNC(=N)N)C(=O)NC(C)(C)C(=O)N[C@@H](C)C(=O)O [Peptide 499] (H-H[Aib]QGTFTSDVSK[αMeF]LDTK([AEEA-AEEA-γGlu-C18 diacid])RAQDFVQWLLR[Aib]A-OH; N-terminus assumed)
6 | 0.102 | 2.0 | 0.101 | CC(C)C[C@H](NC(=O)[C@H](Cc1c[nH]c2ccccc12)NC(=O)[C@H](CCC(N)=O)NC(=O)[C@@H](NC(=O)[C@H](Cc1ccccc1)NC(=O)[C@H](CC(=O)O)NC(=O)[C@H](CCC(N)=O)NC(=O)[C@H](C)NC(=O)[C@H](CCCNC(=N)N)NC(=O)[C@H](CCCCNC(=O)COCCOCCNC(=O)COCCOCCNC(=O)CC[C@H](NC(=O)CCCCCCCCCCCCCCCCCCC(=O)O)C(=O)O)NC(=O)[C@@H](NC(=O)[C@H](CC(=O)O)NC(=O)[C@H](CC(C)C)NC(=O)[C@](C)(Cc1ccccc1)NC(=O)[C@H](CCCCN)NC(=O)[C@H](CO)NC(=O)[C@@H](NC(=O)[C@H](CC(=O)O)NC(=O)[C@H](CO)NC(=O)[C@@H](NC(=O)[C@H](Cc1ccccc1)NC(=O)[C@@H](NC(=O)CNC(=O)[C@H](CCC(N)=O)NC(=O)C(C)(C)NC(=O)[C@@H](N)Cc1c[nH]cn1)[C@@H](C)O)[C@@H](C)O)C(C)C)[C@@H](C)O)C(C)C)C(=O)N[C@@H](CC(C)C)C(=O)N[C@@H](CCCNC(=N)N)C(=O)NC(C)(C)C(=O)N[C@@H](C)C(=O)O [Peptide 500] (H-H[Aib]QGTFTSDVSK[αMeF]LDTK([AEEA-AEEA-γGlu-C20 diacid])RAQDFVQWLLR[Aib]A-OH; N-terminus assumed)
7 | 0.0265 | 5.6 | 0.0756 | CC(C)C[C@H](NC(=O)[C@H](Cc1c[nH]c2ccccc12)NC(=O)[C@H](CCC(N)=O)NC(=O)[C@@H](NC(=O)[C@H](Cc1ccccc1)NC(=O)[C@H](CC(=O)O)NC(=O)[C@H](CCCNC(=N)N)NC(=O)[C@H](C)NC(=O)[C@H](CCCNC(=N)N)NC(=O)[C@H](CCCCNC(=O)COCCOCCNC(=O)COCCOCCNC(=O)CC[C@H](NC(=O)CCCCCCCCCCCCCCCCC(=O)O)C(=O)O)NC(=O)[C@@H](NC(=O)[C@H](CC(=O)O)NC(=O)[C@H](CC(C)C)NC(=O)[C@](C)(Cc1ccccc1)NC(=O)[C@H](CCCCN)NC(=O)[C@H](CO)NC(=O)[C@@H](NC(=O)[C@H](CC(=O)O)NC(=O)[C@H](CO)NC(=O)[C@@H](NC(=O)[C@H](Cc1ccccc1)NC(=O)[C@@H](NC(=O)CNC(=O)[C@H](CCC(N)=O)NC(=O)C(C)(C)NC(=O)[C@@H](N)Cc1c[nH]cn1)[C@@H](C)O)[C@@H](C)O)C(C)C)[C@@H](C)O)C(C)C)C(=O)N[C@@H](CC(C)C)C(=O)N[C@@H](CCCNC(=N)N)C(=O)NC(C)(C)C(=O)N[C@@H](C)C(=O)O [Peptide 501] (H-H[Aib]QGTFTSDVSK[αMeF]LDTK([AEEA-AEEA-γGlu-C18 diacid])RARDFVQWLLR[Aib]A-OH; N-terminus assumed)
